Measured values reported in ChEMBL document CHEMBL5543153, “Discovery of a Potent Dual Son of Sevenless 1 (SOS1) and Epidermal Growth Factor Receptor (EGFR) Inhibitor for the Treatment of Prostate Cancer” (J Med Chem, 2024).
Activity calls are given as the source filed them. No cut-off for these calls is given here.

Tests used:
PC-3 [1] = experiment: Antitumor activity against human PC-3 cells xenografted in BALB/c mouse assessed as increase in apoptosis in tumor tissue at ip administrated once every 4 days for 24 days by TUNEL staining based immunohistochemical analysis; format: functional, organism-based; details: time 24.0 day
PC-3 [2] = experiment: Induction of cell cycle arrest in human PC-3 cells assessed as accumulation of cells at G2 phase at 0.5 uM by PI staining based flow cytometry (reference value: 7.75%); format: functional
[3] = target: Epidermal growth factor receptor (Homo sapiens, UniProt P00533); experiment: Inhibition of EGFR in human PC-3 cells assessed as downregulation of EGF-mediated AKT phosphorylation at 12.5 uM incubated for 15 mins in presence of EGF by Western blotting analysis; format: cell-based
Chain of Epidermal growth factor receptor (P00533 whole entry): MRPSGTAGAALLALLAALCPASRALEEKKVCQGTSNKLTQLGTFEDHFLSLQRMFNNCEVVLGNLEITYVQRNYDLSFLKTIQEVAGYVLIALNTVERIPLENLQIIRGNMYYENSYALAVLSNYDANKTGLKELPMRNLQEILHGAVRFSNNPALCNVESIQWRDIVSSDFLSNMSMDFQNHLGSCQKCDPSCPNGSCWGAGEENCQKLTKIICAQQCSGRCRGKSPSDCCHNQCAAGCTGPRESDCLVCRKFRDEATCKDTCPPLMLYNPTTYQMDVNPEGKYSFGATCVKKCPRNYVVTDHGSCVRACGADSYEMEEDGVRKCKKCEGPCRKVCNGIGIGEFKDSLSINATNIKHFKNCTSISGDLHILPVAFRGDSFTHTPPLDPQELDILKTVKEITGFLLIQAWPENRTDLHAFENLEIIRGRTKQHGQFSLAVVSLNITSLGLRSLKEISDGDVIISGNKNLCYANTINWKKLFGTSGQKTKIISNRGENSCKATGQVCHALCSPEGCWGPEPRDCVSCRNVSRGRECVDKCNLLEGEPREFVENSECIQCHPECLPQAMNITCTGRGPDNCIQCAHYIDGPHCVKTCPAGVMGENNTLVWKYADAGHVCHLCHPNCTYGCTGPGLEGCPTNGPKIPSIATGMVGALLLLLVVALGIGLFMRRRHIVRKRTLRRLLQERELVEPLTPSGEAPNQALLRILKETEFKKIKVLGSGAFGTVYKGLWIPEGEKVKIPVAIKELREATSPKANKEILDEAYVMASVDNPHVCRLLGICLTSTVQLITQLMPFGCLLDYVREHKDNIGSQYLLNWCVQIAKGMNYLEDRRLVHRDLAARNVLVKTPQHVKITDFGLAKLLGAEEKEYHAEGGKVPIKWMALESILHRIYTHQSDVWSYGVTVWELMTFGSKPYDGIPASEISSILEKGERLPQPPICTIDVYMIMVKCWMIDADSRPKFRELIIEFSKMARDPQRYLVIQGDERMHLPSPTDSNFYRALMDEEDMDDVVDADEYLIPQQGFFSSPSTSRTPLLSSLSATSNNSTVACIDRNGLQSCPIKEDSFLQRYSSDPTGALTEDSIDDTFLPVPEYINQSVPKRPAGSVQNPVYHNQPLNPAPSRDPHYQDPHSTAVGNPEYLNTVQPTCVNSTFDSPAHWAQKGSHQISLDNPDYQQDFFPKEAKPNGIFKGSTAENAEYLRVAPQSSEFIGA

[4] = Toxicity in BALB/c mouse xenografted with human PC-3 cells assessed as change in body weight at 20 mg/kg,ip administrated once every 4 days for 24 days; format: organism-based; details: in vivo, 576 h, time 24 day
[5] = Toxicity in BALB/c mouse xenografted with human PC-3 cells assessed as liver pathological change at 5 mg/kg,ip administrated once every 4 days for 24 days by hematoxylin and eosin staining based analysis; format: organism-based; details: in vivo, 576 h, time 24 day
[6] = Antiproliferative activity against human RWPE-1 cells assessed as inhibition of cell growth incubated for 72 hrs by MTT assay; format: toxicity, cell-based
DLD-1 = experiment: Antiproliferative activity against human DLD-1 cells assessed as inhibition of cell growth incubated for 72 hrs by MTT assay; format: functional, cell-based
HUVEC [7] = experiment: Antiangiogenic activity in HUVEC cells assessed as reduction in tube length at 0.5 to 12.5 uM incubated for 8 hrs by matrigel based microscopic analysis; format: functional, cell-based; details: Homo sapiens, dose 0.5-12.5 µM
HUVEC [8] = experiment: Inhibition of cell migration in HUVEC cells assessed as reduction in migration index measured after 48 hrs by wound healing assay; format: functional, cell-based; details: Homo sapiens
HUVEC [9] = experiment: Antiangiogenic activity in HUVEC cells assessed as reduction of meshes at 0.5 to 12.5 uM incubated for 8 hrs by matrigel based microscopic analysis; format: functional, cell-based; details: Homo sapiens, dose 0.5-12.5 µM
HUVEC [10] = experiment: Inhibition of cell migration in HUVEC cells assessed as reduction in invasion index at 0.5 to 12.5 uM measured after 48 hrs by crystal violet staining based transwell invasion assay; format: functional; details: Homo sapiens, dose 0.5-12.5 µM
HUVEC [11] = experiment: Antiangiogenic activity in HUVEC cells assessed as reduction in tube formation at 0.5 to 12.5 uM incubated for 8 hrs by matrigel based microscopic analysis; format: functional, cell-based; details: Homo sapiens, dose 0.5-12.5 µM
K562 = experiment: Antiproliferative activity against human K562 cells assessed as inhibition of cell growth incubated for 72 hrs by MTT assay; format: functional, cell-based
[12] = Toxicity in BALB/c mouse xenografted with human PC-3 cells assessed as change in ALT level at 5 mg/kg,ip administrated once every 4 days for 24 days by automatic biochemical analyzer; format: organism-based; details: in vivo, 576 h, time 24 day
PC-3 [13] = experiment: Induction of apoptosis in human PC-3 cells assessed as early apoptotic cells at 2.5 uM by Annexin V-FITC staining based flow cytometry (reference value: 2.64%); format: functional
PC-3 [14] = experiment: Antiproliferative activity against human PC-3 cells transfected with EGFR shRNA assessed as inhibition of cell growth incubated for 72 hrs by MTT assay; format: functional, cell-based; details: PC-3, 72 h
PC-3 [15] = experiment: Antiproliferative activity against human PC-3 cells transfected with SOS1 and EGFR shRNA assessed as inhibition of cell growth incubated for 72 hrs by MTT assay; format: functional, cell-based; details: PC-3, 72 h
[16] = Toxicity in BALB/c mouse xenografted with human PC-3 cells assessed as spleen pathological change at 5 mg/kg,ip administrated once every 4 days for 24 days by hematoxylin and eosin staining based analysis; format: organism-based; details: in vivo, 576 h, time 24 day
PC-3 [17] = experiment: Induction of apoptosis in human PC-3 cells assessed as upregulation of cleaved PARP expression by Western blotting analysis; format: functional, cell-based
[18] = Toxicity in BALB/c mouse xenografted with human PC-3 cells assessed as spleen pathological change at 20 mg/kg,ip administrated once every 4 days for 24 days by hematoxylin and eosin staining based analysis; format: organism-based; details: in vivo, 576 h, time 24 day
[19] = Toxicity in BALB/c mouse xenografted with human PC-3 cells assessed as heart pathological change at 20 mg/kg,ip administrated once every 4 days for 24 days by hematoxylin and eosin staining based analysis; format: organism-based; details: in vivo, 576 h, time 24 day
NCI-H358 = experiment: Antiproliferative activity against human NCI-H358 cells harboring KRAS G12C mutant assessed as inhibition of cell growth incubated for 72 hrs by MTT assay; format: functional, cell-based; details: NCI-H358, 72 h
PC-3 [20] = experiment: Induction of apoptosis in human PC-3 cells assessed as necrotic cells at 0.5 uM by Annexin V-FITC staining based flow cytometry (reference value: 0.48%); format: functional
PC-3 [21] = experiment: Induction of apoptosis in human PC-3 cells assessed as late apoptotic cells at 12.5 uM by Annexin V-FITC staining based flow cytometry (reference value: 1.93%); format: functional
HUVEC [22] = experiment: Antiangiogenic activity in HUVEC cells assessed as reduction in tube segments at 0.5 to 12.5 uM incubated for 8 hrs by matrigel based microscopic analysis; format: functional, cell-based; details: Homo sapiens, dose 0.5-12.5 µM
PC-3 [23] = experiment: Induction of cell cycle arrest in human PC-3 cells assessed as accumulation of cells at G2 phase at 2.5 uM by PI staining based flow cytometry (reference value: 7.75%); format: functional

COc1cc2ncnc(N[C@H](C)c3cccc(F)c3)c2cc1OC1CCOCC1
Activity (PC-3 [1]): Dose-Dependent Effect
Activity (PC-3 [2]): 9.71%
inhibition [3]: Active
Activity [4]: Toxic
Activity [5]: Toxic
IC50 at 72 h [6]: > 10 µM
Activity (DLD-1): Active
Activity (HUVEC [7]): Active
inhibition (HUVEC [8]): Dose-Dependent Effect
Activity (HUVEC [9]): Active
inhibition (HUVEC [10]): Active
Activity (HUVEC [11]): Active
Activity (K562): Active
Activity [12]: Non-Toxic
Activity (PC-3 [13]): 17%
IC50 (PC-3 [14]): 5.48 µM
IC50 (PC-3 [15]): > 10 µM
Activity [16]: Toxic
Activity (PC-3 [17]): Dose-Dependent Effect
Activity [18]: Toxic
Activity [19]: Toxic
IC50 (NCI-H358): 0.55 µM
Activity (PC-3 [20]): 0.6%
Activity (PC-3 [21]): 4.07%
Activity (HUVEC [22]): Active
Activity (PC-3 [23]): 12.65%
